Test results taken from PMC4609000 (Chembiochem : a European journal of chemical biology, 2015).
Entries after “also recorded” stand apart in the source; their conditions may differ. Like-named read-outs stand apart in the source and are kept apart here.

What was measured:
[1] = biological target: DXP synthase; settings: cited from earlier work
[2] = biological target: T1, DXP synthase (Escherichia coli, UniProt P77488); experiment: DXP synthase inhibition, continuous spectrophotometric IspC-coupled assay; format: biochemical, E. coli; settings: for mode of inhibition with respect to D-GAP / mode of inhibition with respect to pyruvate: model discrimination analysis (AIC)
[3] = pH 8
[4] = biological target: T1, DXP synthase; experiment: Rapid dilution experiment; format: biochemical, E. coli; settings: pre-incubation 15 or 30 min
[5] = 13C NMR monitoring of oxime 8 at pH 8; format: physicochemical; settings: pH 8, 24 hours
[6] = biological target: T1, DXP synthase; experiment: DXP synthase inhibitory activity in the presence of BME or ascorbic acid; format: biochemical, E. coli; settings: inhibitor 50 µM
[7] = Stability of inhibitors under the assay conditions; settings: HEPES pH 8.0, 37 °C, HPLC analysis, data not shown

T1 sequence (P77488 whole entry): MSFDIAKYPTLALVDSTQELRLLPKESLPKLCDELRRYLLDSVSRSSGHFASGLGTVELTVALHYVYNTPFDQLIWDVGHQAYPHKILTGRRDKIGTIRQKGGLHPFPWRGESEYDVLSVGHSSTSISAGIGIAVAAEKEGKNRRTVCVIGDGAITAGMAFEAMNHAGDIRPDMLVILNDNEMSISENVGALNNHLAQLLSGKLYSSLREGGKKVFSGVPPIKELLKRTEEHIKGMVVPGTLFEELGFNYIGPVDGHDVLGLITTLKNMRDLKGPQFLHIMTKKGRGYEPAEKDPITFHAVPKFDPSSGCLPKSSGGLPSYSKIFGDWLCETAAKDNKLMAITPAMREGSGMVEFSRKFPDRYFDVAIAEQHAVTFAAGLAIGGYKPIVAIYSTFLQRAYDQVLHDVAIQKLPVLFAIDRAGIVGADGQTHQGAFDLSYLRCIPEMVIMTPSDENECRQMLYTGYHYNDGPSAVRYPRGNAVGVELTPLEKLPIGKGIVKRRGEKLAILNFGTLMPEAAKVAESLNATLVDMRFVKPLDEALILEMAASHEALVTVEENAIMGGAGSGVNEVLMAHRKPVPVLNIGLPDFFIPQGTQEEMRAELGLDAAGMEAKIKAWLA

For CCCCOP(=O)(O)C(C)=O [Butyl Acetyl Phosphonate], the Ki [1] is given as 5.6 ± 0.8 µM.

With O=C([O-])/C=N/OCCO/N=C/c1cc(O)c(O)cc1O.[Na+] [Compound 4, Sodium (1E,7E)-1-(2,4,5-trihydroxyphenyl)-3,6-dioxa-2,7-diazanona-1,7-dien-9-oate] the “mode of inhibition with respect to D-GAP” value [2] was “competitive” and the “mode of inhibition with respect to pyruvate” value [2] was “noncompetitive”.

With Oc1cc(O)c(/C=N/OCCO/N=C/c2cc(O)c(O)cc2O)cc1O [Compound 5, (1E,1'E)-O,O'-(Ethane-1,2-diyl)bis(1-(2,4,5-trihydroxyphenyl)-2,4,5-trihydroxybenzaldehyde oxime)] the “mode of inhibition with respect to D-GAP” value [2] was “competitive” and the “mode of inhibition with respect to pyruvate” value [2] was “uncompetitive”.

In the case of O=Cc1cc(O)c(O)cc1O [Compound 6, 2,4,5-trihydroxybenzaldehyde], the “stability under the conditions of the assay” value (from here on “stability under the conditions”) [3] is reported as “unstable”.

For O/N=C/c1cc(O)c(O)cc1O [Compound 7, (E)-2,4,5-Trihydroxybenzaldehyde oxime], the “mode of inhibition with respect to D-GAP” value [2] was “competitive” and the “mode of inhibition with respect to pyruvate” value [2] was “uncompetitive”.

For CO/N=C/c1cc(O)c(O)cc1O [Compound 8, (E)-2,4,5-Trihydroxybenzaldehyde O-methyl oxime], the “time dependence of inhibitory activity” value [4] was “not time-dependent”, the “quinone species observed by 13C NMR” value [5] was “no observable quinone species” and the “inhibitory activity in the presence of BME” value ([6]; BME 0.5 mM) was “abolished; also recorded: abolishes inhibitory activity”. For the same compound, the “inhibitory activity in the presence of ascorbic acid” value ([6]; ascorbic acid 2.0 mM) was “does not abolish inhibitory activity” and the “mode of inhibition with respect to pyruvate” value [2] was “noncompetitive”.

With Oc1cc(O)c(/C=N/OCc2ccccc2)cc1O [Compound 9, (E)-2,4,5-Trihydroxybenzaldehyde O-benzyl oxime] the “mode of inhibition with respect to pyruvate” value [2] was “noncompetitive”.

In the case of CONCc1cc(O)c(O)cc1O.Cl [Compound 10, 5-((Methoxyamino)methyl)benzene-1,2,4-triol hydrochloride], the “stability under the conditions” value [7] is reported as “unstable” and the Ki ([2]; evaluated in the presence of ascorbic acid (2.0 mM)) is reported as greater than 75 µM.

In the case of CN/N=C/c1cc(O)c(O)cc1O [Compound 11, (E)-5-((2-Methylhydrazono)methyl)benzene-1,2,4-triol], the “stability under the conditions” value [7] is reported as “unstable”.

For CO/N=C/c1cc(O)c(O)c(O)c1 [Compound 17, (E)-3,4,5-Trihydroxybenzaldehyde O-methyl oxime], the “mode of inhibition with respect to D-GAP” value [2] was “competitive”.

Work on CO/N=C/c1cc(O)c(O)c(OC)c1 [Compound 18, (E)-3,4-Dihydroxy-5-methoxybenzaldehyde O-methyl oxime] yielded an inhibition at 200 µM [2] of 18%.

With CO/N=C/c1cccc([N+](=O)[O-])c1O [Compound 21, (E)-2-Hydroxy-3-nitrobenzaldehyde O-methyl oxime] the Ki [2] was 47.8 ± 8.4 µM and the “mode of inhibition with respect to D-GAP” value [2] was “competitive”.

For CO/N=C/c1cc(O)c(O)cc1F [Compound 22, (E)-2-Fluoro-4,5-dihydroxybenzaldehyde O-methyl oxime], the “stability under the conditions” value [3] was “unstable” and the “mode of inhibition with respect to D-GAP” value [2] was “competitive”.

For CO/N=C/c1cc(F)c(F)cc1O [Compound 23, (E)-4,5-Difluoro-2-hydroxybenzaldehyde O-methyl oxime], the “inhibitory activity” value ([2]; up to 100 µM) was “minimally active”.

For CC1(C)C(=O)ON(Cc2ccccc2Cl)C1=O [Ketoclomazone], the Ki [1] is given as 75 µM, the “mode of inhibition against D-GAP” value [1] is given as “noncompetitive” and the “mode of inhibition with respect to pyruvate” value [1] is given as “uncompetitive”.
